US20260109699A1, “AZOLE DERIVATIVES AS SHP2 INHIBITORS” (IRBM S.P.A., priority 2022, published 2026)

Legend:
[1] = target: T1, SHP-2 enzyme (Met1-Leu525), SHP2wt (Homo sapiens, UniProt Q06124); test: SHP2 inhibition enzymatic assay; format: biochemical; settings: 0.5 nM SHP-2 activated by 500 nM IRS1 peptide, 75 μM DiFMUP substrate
T1 construct: synthetized by Origene, Met1-Leu525, cat #TP750155; purchased Origene TP750155
T1 sequence (Q06124 1-525): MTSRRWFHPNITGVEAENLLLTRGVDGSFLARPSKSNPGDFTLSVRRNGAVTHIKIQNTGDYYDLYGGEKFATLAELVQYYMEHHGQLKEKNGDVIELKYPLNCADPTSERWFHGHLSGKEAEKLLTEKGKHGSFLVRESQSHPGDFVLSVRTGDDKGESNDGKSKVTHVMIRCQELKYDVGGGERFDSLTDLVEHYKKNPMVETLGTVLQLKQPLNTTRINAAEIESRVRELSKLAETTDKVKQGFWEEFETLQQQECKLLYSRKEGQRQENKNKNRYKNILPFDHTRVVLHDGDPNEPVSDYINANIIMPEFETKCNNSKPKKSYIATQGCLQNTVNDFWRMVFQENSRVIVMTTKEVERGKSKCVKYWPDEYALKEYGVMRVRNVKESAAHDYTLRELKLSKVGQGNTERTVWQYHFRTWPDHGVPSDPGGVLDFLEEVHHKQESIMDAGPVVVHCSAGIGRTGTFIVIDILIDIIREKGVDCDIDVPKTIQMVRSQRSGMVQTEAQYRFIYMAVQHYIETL
Description: The assay was performed as described in YP Chen et al, Nature (535) 2016. Assay volume of 20 μL/well was assembled in 384 well black polystyrene low-binding microplates (Greiner), using the following buffer: 60 mM HEPES pH 7.2, 75 mM NaCl, 75 mM KCl, 1 mM EDTA pH 8, 0.05% tween-20, 5 mM DTT. The SHP-2 enzyme (synthetized by Origene, Met1-Leu525, cat #TP750155) was used at a final concentration of 0.5 nM. The enzyme was activated by 500 nM IRS1 peptide (sequence: H2N-LN(pY)IDLDLV(dPEG8)LST(pY)ASINFQK-amide; Wang et al., iScience 25,104009, Apr. 15, 2022, https://doi.org/10.1016/j.isci.2022.104009) and incubated with 75 μM DiFMUP (Sigma) as substrate.
Briefly, DMSO serially diluted testing compounds were transferred to the bottom of the assay plate. SHP2 was then added together with the IRS1 peptide 30 min post incubation, the DiFMUP substrate was added to the reaction and incubated 30 min at rt. Finally 5 μL of 160 μM bpV (potassium bisperoxo[1,10-phenanthroline]oxovanadate [V], Sigma) were added to stop and quench the reaction. The fluorescence was detected by a microplate reader (Envision, PerkinElmer) according to the DiFMUP excitation and emission wavelength. The lower the fluorescence the higher the SHP2 inhibition.
The activity of each compound dilution was calculated as percentage of inhibition between vehicle (DMSO, 0% inhibition) and no enzyme (100% inhibition). The percentage inhibition is fitted against the compound dilutions with a four-parameter logistic regression. The inflection point (i.e. the concentration at which half-maximal inhibition is achieved) is the IC50.
Legend: A indicates IC50 less or equal to 0.05 μM; B indicates IC50 greater than 0.05 μM and lower or equal to 0.3 μM.

[2] = system: phospho-ERK1/2 (Thr202/Tyr204); test: Phospho-ERK cellular assay; format: cell-based; settings: Homo sapiens; KYSE-520 cells, 2 h at 37° C, TR-FRET; read-out: pERK IC50
Description: ERK phosphorylation was detected using the “Advanced phospho-ERK1/2 (Thr202/Tyr204)” TR-FRET kit (Cisbio, Cat #64AERPEG/H), following the manufacturer reagents and instructions.
Briefly, 20.000/well KYSE-520 cells (DSMZ ACC 371) were plated in 6 μL RPMI-1640 (Invitrogen) growth medium, into 384 white low-volume high base TC microplates (Greiner). After an overnight incubation, cells were treated with DMSO serial diluted compounds and incubated for 2 h at 37° C. After incubation, 2 μL/well of 4×Lysis Buffer (Cisbio 64KL1FDF), were added and incubated with cells for 30 min on gentle shaking. Finally, lysates were added with 2 μL/well of Eu cryptate (donor) and D2 (acceptor) conjugated antibodies (as provided by the Cisbio kit #64AERPEG/H) diluted 1:100 in Detection Buffer (as provided by the Cisbio kit #64AERPEG/H). Plates were then sealed and incubated at rt in the dark. After an overnight incubation, the TR-FRET signal was detected on a suitable reader (Envision, PerkinElmer).
The lower the TR-FRET signal the higher the higher the SHP2 inhibition in cells.
The activity of each compound dilution was calculated as percentage between vehicle DMSO treated cells and no cells, 0% inhibition and 100% inhibition respectively. The percentage activity is fitted against the compound dilutions with a four-parameter logistic regression. The inflection point (i.e. the concentration at which half-maximal inhibition is achieved) is the IC50.
Legend: “+” indicates IC50 equal or higher than 0.5 μM; “++” indicates IC50 less than 0.5 μM and higher or equal to 0.1 μM; “+++” indicates IC50 less than 0.1 μM.

Q: Which results are given for `N[C@@H]1c2ccnn2CC12CCN(c1cnc(Sc3ccccc3C(F)(F)F)cn1)CC2` [Example 41, (S)-1-(5-((2-(trifluoromethyl)phenyl)thio)pyrazin-2-yl)-4′H,6′H-spiro[piperidine-4,5′-pyrrolo[1,2-b]pyrazol]-4′-amine]?
A: IC50 [1]: ≤ 50 nM; IC50 [2]: < 100 nM

Q: With `N[C@@H]1c2ccnn2CC12CCN(c1cnc(Sc3ccnc(C(F)(F)F)c3Cl)cn1)CC2` [Example 54, (S)-1-(5-((3-chloro-2-(trifluoromethyl)pyridin-4-yl)thio)pyrazin-2-yl)-4′H,6′H-spiro[piperidine-4,5′-pyrrolo[1,2-b]pyrazol]-4′-amine] as the molecule, how does the IC50 [1] read?
A: Its IC50 is ≤ 50 nM.

Q: And the IC50 [2]?
A: Its IC50 is < 100 nM.

Q: `N[C@@H]1c2ccnn2CC12CCN(c1cnc(Sc3ccc(Cl)cc3Cl)cn1)CC2` [Example 22, (S)-1-(5-((2,4-dichlorophenyl)thio)pyrazin-2-yl)-4′H,6′H-spiro[piperidine-4,5′-pyrrolo[1,2-b]pyrazol]-4′-amine] was tested. Which IC50 [1] did it give?
A: The IC50 was ≤ 50 nM.

Q: What about the IC50 [2] of the same molecule?
A: The IC50 was < 100 nM.

Q: With `N[C@@H]1c2ccnn2CC12CCN(c1cnc(Sc3cccc4c3CCO4)cn1)CC2` [Example 38, (S)-1-(5-((2,3-dihydrobenzofuran-4-yl)thio)pyrazin-2-yl)-4′H,6′H-spiro[piperidine-4,5′-pyrrolo[1,2-b]pyrazol]-4′-amine] as the molecule, how does the IC50 [1] read?
A: Its IC50 is ≤ 50 nM.

Q: And the IC50 [2]?
A: Its IC50 is 100 to 500 nM.

Q: What does the source list for `Cc1nc(Sc2cccc(Cl)c2Cl)cnc1N1CCC2(CC1)Cn1nccc1[C@H]2N` [Example 17, (S)-1-(5-((2,3-dichlorophenyl)thio)-3-methylpyrazin-2-yl)-4′H,6′H-spiro[piperidine-4,5′-pyrrolo[1,2-b]pyrazol]-4′-amine]?
A: IC50 [1]: ≤ 50 nM; IC50 [2]: 100 to 500 nM

Q: For `Cn1cnc2ccc(Sc3cnc(N4CCC5(CC4)Cn4nccc4[C@H]5N)cn3)cc21` [Example 65, (S)-1-(5-((1-methyl-1H-benzo[d]imidazol-6-yl)thio)pyrazin-2-yl)-4′H,6′H-spiro[piperidine-4,5′-pyrrolo[1,2-b]pyrazol]-4′-amine], which IC50 [1] is on record?
A: The IC50 was ≤ 50 nM.

Q: What about the IC50 [2] of the same molecule?
A: The IC50 was < 100 nM.

Q: What does the source list for `CC(C)c1ccccc1Sc1cnc(N2CCC3(CC2)Cn2nccc2[C@H]3N)cn1` [Example 27, (S)-1-(5-((2-isopropylphenyl)thio)pyrazin-2-yl)-4′H,6′H-spiro[piperidine-4,5′-pyrrolo[1,2-b]pyrazol]-4′-amine]?
A: IC50 [1]: ≤ 50 nM; IC50 [2]: < 100 nM

Q: What does the source list for `Cn1cc2c(Cl)c(Sc3cnc(N4CCC5(CC4)Cn4nccc4[C@H]5N)cn3)ccc2n1` [Example 84, (S)-1-(5-((4-chloro-2-methyl-2H-indazol-5-yl)thio)pyrazin-2-yl)-4′H,6′H-spiro[piperidine-4,5′-pyrrolo[1,2-b]pyrazol]-4′-amine]?
A: IC50 [1]: ≤ 50 nM; IC50 [2]: < 100 nM

Q: With `N[C@@H]1c2ccnn2CC12CCN(c1cnc(Sc3cccc(F)c3Cl)cn1)CC2` [Example 30, (S)-1-(5-((2-chloro-3-fluorophenyl)thio)pyrazin-2-yl)-4′H,6′H-spiro[piperidine-4,5′-pyrrolo[1,2-b]pyrazol]-4′-amine] as the molecule, how does the IC50 [1] read?
A: Its IC50 is ≤ 50 nM.

Q: And the IC50 [2]?
A: The IC50 was < 100 nM.

Q: How did the IC50 [1] turn out when `Cc1ccccc1Sc1cnc(N2CCC3(CC2)Cn2nccc2[C@H]3N)cn1` [Example 26, (S)-1-(5-(o-tolylthio)pyrazin-2-yl)-4′H,6′H-spiro[piperidine-4,5′-pyrrolo[1,2-b]pyrazol]-4′-amine] was run?
A: The IC50 was ≤ 50 nM.

Q: What about the IC50 [2] of the same molecule?
A: The IC50 was < 100 nM.

Q: Which IC50 [1] does the source give for `N[C@@H]1c2ccnn2CC12CCN(c1cnc(Sc3cccc4c3COC4)cn1)CC2` [Example 52, (S)-1-(5-((1,3-dihydroisobenzofuran-4-yl)thio)pyrazin-2-yl)-4′H,6′H-spiro[piperidine-4,5′-pyrrolo[1,2-b]pyrazol]-4′-amine] here?
A: The IC50 was ≤ 50 nM.

Q: What about the IC50 [2] of the same molecule?
A: Its IC50 is < 100 nM.

Q: With `N[C@@H]1c2ccnn2CC12CCN(c1cnc(Sc3ccc(OC(F)(F)F)cc3)cn1)CC2` [Example 18, (S)-1-(5-((4-(trifluoromethoxy)phenyl)thio)pyrazin-2-yl)-4′H,6′H-spiro[piperidine-4,5′-pyrrolo[1,2-b]pyrazol]-4′-amine] as the molecule, how does the IC50 [1] read?
A: Its IC50 is ≤ 50 nM.

Q: What about the IC50 [2] of the same molecule?
A: The IC50 was 100 to 500 nM.

Q: What does the source list for `N[C@@H]1c2ccnn2CC12CCN(c1cnc(Sc3cccc(-n4cccn4)c3F)cn1)CC2` [Example 81, (S)-1-(5-((2-fluoro-3-(1H-pyrazol-1-yl)phenyl)thio)pyrazin-2-yl)-4′H,6′H-spiro[piperidine-4,5′-pyrrolo[1,2-b]pyrazol]-4′-amine]?
A: IC50 [1]: ≤ 50 nM; IC50 [2]: < 100 nM

Q: `Cc1c(Cl)cccc1Sc1cnc(N2CCC3(CC2)Cn2nccc2[C@H]3N)cn1` [Example 33, (S)-1-(5-((3-chloro-2-methylphenyl)thio)pyrazin-2-yl)-4′H,6′H-spiro[piperidine-4,5′-pyrrolo[1,2-b]pyrazol]-4′-amine] was tested. Which IC50 [1] did it give?
A: The IC50 was ≤ 50 nM.

Q: And the IC50 [2]?
A: The IC50 was < 100 nM.

Q: Which IC50 [1] does the source give for `Cc1cccc(Sc2cnc(N3CCC4(CC3)Cn3nccc3[C@H]4N)cn2)c1Cl` [Example 35, (S)-1-(5-((2-chloro-3-methylphenyl)thio)pyrazin-2-yl)-4′H,6′H-spiro[piperidine-4,5′-pyrrolo[1,2-b]pyrazol]-4′-amine] here?
A: The IC50 was ≤ 50 nM.

Q: And the IC50 [2]?
A: Its IC50 is < 100 nM.

Q: Which results are given for `N[C@@H]1c2ccnn2CC12CCN(c1cnc(Sc3cc(C(F)F)ccc3F)cn1)CC2` [Example 74, (S)-1-(5-((5-(difluoromethyl)-2-fluorophenyl)thio)pyrazin-2-yl)-4′H,6′H-spiro[piperidine-4,5′-pyrrolo[1,2-b]pyrazol]-4′-amine]?
A: IC50 [1]: ≤ 50 nM; IC50 [2]: 100 to 500 nM

Q: With `N[C@@H]1c2ccnn2CC12CCN(c1cnc3nc(-c4cccc(F)c4F)ccc3n1)CC2` [Example 8, (S)-1-(6-(2,3-difluorophenyl)pyrido[2,3-b]pyrazin-2-yl)-4′H,6′H-spiro[piperidine-4,5′-pyrrolo[1,2-b]pyrazol]-4′-amine] as the molecule, how does the IC50 [1] read?
A: Its IC50 is ≤ 50 nM.

Q: And the IC50 [2]?
A: The IC50 was > 500 nM.

Q: For `N[C@@H]1c2ccnn2CC12CCN(c1cnc(Sc3ccc(Cl)c4ncccc34)cn1)CC2` [Example 70, (S)-1-(5-((8-chloroquinolin-5-yl)thio)pyrazin-2-yl)-4′H,6′H-spiro[piperidine-4,5′-pyrrolo[1,2-b]pyrazol]-4′-amine], which IC50 [1] is on record?
A: Its IC50 is ≤ 50 nM.

Q: What about the IC50 [2] of the same molecule?
A: The IC50 was < 100 nM.

Q: Which results are given for `Cc1nc(N2CCC3(CC2)Cn2nccc2[C@H]3N)cnc1Sc1ccnc(C)c1F` [Example 4, (S)-1-(5-((3-fluoro-2-methylpyridin-4-yl)thio)-6-methylpyrazin-2-yl)-4′H,6′H-spiro[piperidine-4,5′-pyrrolo[1,2-b]pyrazol]-4′-amine]?
A: IC50 [1]: ≤ 50 nM; IC50 [2]: 100 to 500 nM

Q: What does the source list for `COc1cccc(Sc2cnc(N3CCC4(CC3)Cn3nccc3[C@H]4N)cn2)c1F` [Example 60, (S)-1-(5-((2-fluoro-3-methoxyphenyl)thio)pyrazin-2-yl)-4′H,6′H-spiro[piperidine-4,5′-pyrrolo[1,2-b]pyrazol]-4′-amine]?
A: IC50 [1]: ≤ 50 nM; IC50 [2]: < 100 nM
